# Measurements as given in patent US7973219B2, “Method for producing transgenic plants resistant to weed control compounds which disrupt the porphyrin pathways of plants” (Sumitomo Chemical Company, Limited, priority 1998, dated 2011).
# System: E. coli BT3/pACYCSP+pYAGF strain
# Assay: Growth of E. coli BT3/pACYCSP+pYAGF with herbicidal compound
# Type: cell-based, Escherichia coli
# Settings: 1 ppm, 18 hours culture, Table 15
# Source text: According to the description of Gibson, L. C. D. et al., Proc. Natl. Acad. Sci. USA, 92; p 1941 (1995), the DNA fragment containing bchH gene prepared in Example 1 was digested with the restriction enzymes NdeI and BglII. The resultant DNA fragment was inserted between NdeI restriction site and BamHI restriction site of expression vector pET11a (manufactured by Stratagene) to obtain plasmid pETBCH (FIG. 1). This plasmid pETBCH was introduced into E. coli BL21(DE3) strain competent cells (manufactured by Stratagene) according to the manual attached to the competent cells to obtain E. coli BL21(DE3)/pETBCH strain. The strain was inoculated into 1.5 ml LB liquid culture medium (1% tryptone, 0.5% yeast extract, 0.5% NaCl) containing 100 μg/ml ampicillin in a tube (14×10 mm), and the tube was covered with aluminum foil (hereinafter referred to as dark conditions), cultured with shaking at 37° C. under light of fluorescent lamp (about 8000 lux). When the absorbance at 600 nm of the liquid culture medium became about 0.6, isopropyl β-D-thiogalactopyranoside (IPTG) was added to the liquid culture medium so that the final concentration was 0.4 mM, and the culture was continued for about additional 20 hours. […]
structure (smiles),measurement,setting,value
C#CCOc1cc(N2C(=O)C3=C(CCCC3)C2=O)c(F)cc1Cl [Structure 8],Relative absorbance,in the dark,0.96
same,Relative absorbance,in the light,0.62
